Measurements reported in patent US20030003492A1, “Colorimetric nanocrystal sensors, methods of making, and use thereof” (priority 2001, published 2003).

Key:
Binding to lipid A = conditions: binding of lipid A; read-out: dissociation constant
[1] = Binding to simple sugars like glucosamine; conditions: much lower affinity than for lipid A

Question: What does the source list for “tetratryptophan ter-cyclopentane [TWTCP]”?
Answer: Kd (Binding to lipid A): 0.592 µM; Kd [1]: ~20 µM
